In patent publication US20250206722A1, “SMALL MOLECULE INHIBITORS OF TEA DOMAIN FAMILY MEMBERS” (The Scripps Research Institute, priority 2022, published 2025):

Legend:
Assay type in all cases: cell-based
NCI-H226 cells [1] = experiment: NCI-H226 proliferation assay (in house); conditions: Homo sapiens, 120 h, 5 days, Cell TiterGlo, 20-point 1:2 dilution from 20 μM
How it was run: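 Viability by CellTiter-Glo luminescence after 5-day compound exposure at 37 °C, 5% CO2. Compounds added 24 h post-seeding (500 cells/well, RPMI 1640 with 10% FBS) as 20-point, 2-fold series from 20 μM final, triplicate wells.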

[2] = tested on: transcriptional activity of TEADs; experiment: TEAD reporter assay (MCF7 TEAD-LUC reporter cells); conditions: Homo sapiens, 24 hours, BrightGlo luminescence
How it was run: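 Luminescence (BrightGlo) was read after 24 h of compound treatment at 37 °C, 5 % CO2. Cells had been seeded at 5,000 per well in DMEM with 10 % FBS and insulin and rested 24 h first. Dosing used 20 points, 1:2 dilution from 20 μM final, triplicates.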

IMR32 cells = experiment: IMR32 cytotoxicity assay; conditions: Homo sapiens, IMR-32, 72 h, 3 days, Cell TiterGlo
Experimental: IMR32 cells were obtained from American Type Culture Collection (ATCC, CCL-127) and cultured in DMEM (Corning, 10-013-CV) supplemented with 10% fetal bovine serum (Gibco, 10438-026) and 1% penicillin-streptomycin (Gibco, 15070063). Cells were trypsinized, resuspended in growth medium, and diluted to a concentrated of 20,000 cells/mL. 1,000 cells, 50 μL of cell suspension, per well were then plated in a white 384-well plate (Corning) and incubated at 37° C., 5% CO2. After 24 hours incubation, 100 nL of test compounds in DMSO, 20-point 1:2 dilution starting from 20 μM (final concentration) in triplicate, were transferred to each well using an Agilent Bravo instrument outfitted with a pintool head. Cells were incubated at 37° C., 5% CO2 for 3 days followed by the addition of 30 μL of Cell TiterGlo (Promega; diluted 1:6 in water) to each well and luminescence values recorded using an EnVision plate reader. […]

NCI-H226 cells [3] = experiment: NCI-H226 proliferation assay (Wuxi AppTec); conditions: Homo sapiens, 168 h, 7 days, CellTiter-Glo, top dose 10, 3-fold dilution, 9 doses
Experimental: […] Proliferation Assay (From Wuxi AppTec CO.):
Day −1: Seeding cells • (1) Equilibrate cell culture medium to 37° C. • (2) Remove and discard the culture medium. • (3) Briefly rinse the cell layer with PBS to remove all traces of serum that contains […]. • (4) Add 2-3 mL of Trypsin-EDTA solution to flask and observe cells under an inverted microscope until cell layer is dispersed. • (5) Add 6-8 mL of growth medium to terminate the digestion of Trypsin/EDTA. • (6) Centrifuge the mixture (Trypsin EDTA and the growth medium) at 1000 rpm for 5 mins. • (7) Discard the supernatant, suspend the cell precipitation with the fresh growth medium, then take 1 mL the cell suspension to count cells with Vi-cell XR cell viability analyzer. • (8) Adjust the cell density to 500 cells/well for 384-well plates. • (9) Add 50 µL/well volume cell suspension to the assay plate. • (10) Add […] media to the control columns. • (11) Incubate the plate at 37° C., 5% CO2 for overnight. Day 0: Compounds treatment • (1) Add cpds to each well by Tecan HP D300E. The top dose is […], 3-fold dilution and 9 doses. DMSO final concentration will be normalized to 0.2%. • (2) Incubate the assay plate at 37° C., 5% CO2 for 7 days. Day 7: Plate read • (1) Equilibrate the assay plate to the room temperature for nearly 30 minutes. • (2) Add […] CellTiter-Glo reagent to each well and shake the plate for 1 min, incubate 10 min and keep them from light. • (3) Detect the plate by EnVision. Data analysis:
Max: Average of the DMSO group Min: Average of medium group.

Structure (SMILES) | IC50 (NCI-H226 cells [1]) | IC50 [2] | IC50 (NCI-H226 cells [3]) | IC50 (IMR32 cells)
N#CN1CCN(c2nccnc2Nc2ccc(C(F)(F)F)cc2)CC1 [Compound 2, 4-(3-{[4-(trifluoromethyl)phenyl]amino}pyrazin-2-yl)piperazine-1-carbonitrile] | 0.252 µM | 468 nM |  | > 20 µM
C=CC(=O)NC1CN(c2nccnc2Nc2ccc(C(F)(F)F)cc2)C1 [Example 3, N-(1-(3-((4-(trifluoromethyl)phenyl)amino)pyrazin-2-yl)azetidin-3-yl) acrylamide] | 8.24 µM | 3760 nM |  | 10 µM
C=CC(=O)N[C@H]1C[C@@H](Nc2nccnc2Nc2ccc(C(F)(F)F)cc2)C1 [Example 5, N-((ls,3s)-3-((3-((4-(trifluoromethyl)phenyl)amino)pyrazin-2-yl)amino)cyclobutyl) acrylamide] | 13.7 µM | 408 nM |  | > 20 µM
C=CC(=O)NC1CC2(C1)CN(c1nccnc1Nc1ccc(C(F)(F)F)cc1)C2 [Example 6, N-(2-(3-((4-(trifluoromethyl)phenyl)amino)pyrazin-2-yl)-2-azaspiro[3.3]heptan-6-yl)acrylamide] | > 10 µM | > 20000 nM |  | > 20 µM
C=CC(=O)NC1CCN(c2nccnc2Nc2ccc(C(F)(F)F)cc2)C1 (stereo not drawn) [Example 7, N-(1-(3-((4-(trifluoromethyl)phenyl)amino)pyrazin-2-yl)pyrrolidin-3-yl)acrylamide] | 0.195 µM | 28.6 nM |  | > 10 µM
C=CC(=O)NC1CCN(c2nccnc2Nc2ccc(C(F)(F)F)cc2)CC1 [Example 9, N-(1-(3-((4-(trifluoromethyl)phenyl)amino)pyrazin-2-yl)piperidin-4-yl)acrylamide] | > 10 µM | 29.6 nM |  | 10 µM
C=CC(=O)N1[C@@H]2CC[C@H]1CN(c1nccnc1Nc1ccc(C(F)(F)F)cc1)C2 [Example 12, 1-((1R,5S)-3-(3-((4-(trifluoromethyl)phenyl)amino)pyrazin-2-yl)-3,8-diazabicyclo[3.2.1]octan-8-yl)prop-2-en-1-one] | 1.16 µM | 491 nM |  | 10 µM
C=CC(=O)N1CCN(c2nccnc2Nc2ccc(C(F)(F)F)cc2)C[C@@H]1CO [Example 15, (R)-1-(2-(hydroxymethyl)-4-(3-((4-(trifluoromethyl)phenyl)amino)pyrazin-2-yl)piperazin-1-yl)prop-2-en-1-one] | > 20 µM | 5000 nM |  | 10 µM
C=CC(=O)N1CCN(c2nccnc2Nc2ccc(C(F)(F)F)cc2)C[C@H]1CC#N [Example 21, (R)-2-(1-acryloyl-4-(3-((4-(trifluoromethyl)phenyl)amino)pyrazin-2-yl)piperazin-2-yl)acetonitrile] | 0.32 µM | 43 nM |  | > 10 µM
C=CC(=O)N1CC=C(c2nccnc2Nc2ccc(C(F)(F)F)cc2)CC1 [Example 25, 1-[4-(3-{[4-(trifluoromethyl)phenyl]amino}pyrazin-2-yl)-3,6-dihydro-2H-pyridin-1-yl]prop-2-en-1-one] | 0.006 µM | 2.1 nM |  | 15.5 µM
C=CC(=O)N1CCN(c2nccnc2-c2ccc(C(F)(F)F)cc2)CC1 [Example 28, 1-(4-(3-(4-(trifluoromethyl)phenyl)pyrazin-2-yl)piperazin-1-yl)prop-2-en-1-one] | 0.0904 µM | 11.4 nM |  | > 10 µM
C=CC(=O)N1CCN(c2nccnc2-c2cccc(C(F)(F)F)c2)CC1 [Example 29, 1-(4-(3-(3-(trifluoromethyl)phenyl)pyrazin-2-yl)piperazin-1-yl)prop-2-en-1-one] | > 20 µM | > 20000 nM |  | > 20 µM
C=CC(=O)N1CCN(c2nccnc2Nc2cccc(C(F)(F)F)c2)CC1 [Example 30, 1-(4-(3-((3-(trifluoromethyl)phenyl)amino)pyrazin-2-yl)piperazin-1-yl)prop-2-en-1-one] | > 1 µM | 19.9 nM |  | > 10 µM
C=CC(=O)N1CCN(c2nccnc2Nc2ccc(Cl)cc2)CC1 [Example 32, 1-(4-(3-((4-chlorophenyl)amino)pyrazin-2-yl)piperazin-1-yl)prop-2-en-1-one] | 0.059 µM | 4.67 nM |  | 20 µM
C=CC(=O)N1CCC(n2nc(C)cc2C(=O)c2ccc(C(F)(F)F)cc2)CC1 [Example 166, 1-(4-(3-methyl-5-(4-(trifluoromethyl)benzoyl)-1H-pyrazol-1-yl)piperidin-1-yl)prop-2-en-1-one] | 0.02 µM | 0.6 nM | 0.015 µM | 
N#C/C=C/C(=O)N1CCN(c2nccnc2Nc2ccc(C(F)(F)F)cc2)CC1 [Example 181, (E)-4-oxo-4-(4-(3-((4-(trifluoromethyl)phenyl)amino)pyrazin-2-yl)piperazin-1-yl)but-2-enenitrile] | 0.034 µM | 0.44 nM | 0.026 µM | 

More lines, main results first:

IC50 (NCI-H226 cells [1]) | IC50 [2] | IC50 (NCI-H226 cells [3]) | Structure (SMILES) | IC50 (IMR32 cells)
8.48 µM | 49.3 nM |  | C=CC(=O)N1CCC(Nc2nccnc2Nc2ccc(C(F)(F)F)cc2)C1 (stereo not drawn) [Example 8, 1-(3-((3-((4-(trifluoromethyl)phenyl)amino)pyrazin-2-yl)amino)pyrrolidin-1-yl)prop-2-en-1-one] | > 5 µM
> 14 µM | 11400 nM |  | C=CC(=O)NCC1CCCN(c2nccnc2Nc2ccc(C(F)(F)F)cc2)C1 (stereo not drawn) [Example 10, N-((1-(3-((4-(trifluoromethyl)phenyl)amino)pyrazin-2-yl)piperidin-3-yl)methyl)acrylamide] | 10 µM
0.483 µM | 43.5 nM |  | C=CC(=O)N1CC2CC1CN2c1nccnc1Nc1ccc(C(F)(F)F)cc1 (stereo not drawn) [Example 11, 1-(5-(3-((4-(trifluoromethyl)phenyl)amino)pyrazin-2-yl)-2,5-diazabicyclo[2.2.1]heptan-2-yl)prop-2-en-1-one] | 1.41 µM
0.0159 µM | 3.48 nM |  | C=CC(=O)N1CCN(c2nccnc2Nc2ccc(C(F)(F)F)cc2)C[C@H]1C [Example 13, (R)-1-(2-methyl-4-(3-((4-(trifluoromethyl)phenyl)amino)pyrazin-2-yl)piperazin-1-yl)prop-2-en-1-one] | > 10 µM
0.0246 µM | 2.94 nM |  | C=CC(=O)N1CCN(c2nccnc2Nc2ccc(C(F)(F)F)cc2)C[C@@H]1C [Example 14, (S)-1-(2-methyl-4-(3-((4-(trifluoromethyl)phenyl)amino)pyrazin-2-yl)piperazin-1-yl)prop-2-en-1-one] | > 10 µM
> 20 µM | 2500 nM |  | C=CC(=O)N1CCN(c2nccnc2Nc2ccc(C(F)(F)F)cc2)C[C@H]1CO [Example 16, (S)-1-(2-(hydroxymethyl)-4-(3-((4-(trifluoromethyl)phenyl)amino)pyrazin-2-yl)piperazin-1-yl)prop-2-en-1-one] | 5 µM
0.27 µM | 25.9 nM |  | C=CC(=O)N1CCN(c2nccnc2Nc2ccc(C(F)(F)F)cc2)C[C@@H]1CC#N [Example 22, (S)-2-(1-acryloyl-4-(3-((4-(trifluoromethyl)phenyl)amino)pyrazin-2-yl)piperazin-2-yl)acetonitrile] | 15 µM
0.0199 µM | 41 nM |  | C=CC(=O)N1CCN(c2nccnc2Nc2ccc(C(F)(F)F)cc2)C(C)C1 (stereo not drawn) [Example 24, 1-(3-methyl-4-(3-((4-(trifluoromethyl)phenyl)amino)pyrazin-2-yl)piperazin-1-yl)prop-2-en-1-one] | 2.5 µM
0.164 µM | 29.7 nM |  | C=CC(=O)N1CCCN(c2nccnc2Nc2ccc(C(F)(F)F)cc2)CC1 [Example 27, 1-(4-(3-((4-(trifluoromethyl)phenyl)amino)pyrazin-2-yl)-1,4-diazepan-1-yl)prop-2-en-1-one] | 10 µM
